PubChem BioAssay (NCI)
Where “and” joins values, the source holds several entries; their conditions need not be identical. Equal values may be shown once.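 Compound exposure: 48 hours, 5 concentrations, 96-well plates. At the GI50, growth is halved. Definition used: TGI = concentration required for complete inhibition of growth.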 Where a SMILES comes first, the peptide text is derived from it. The star is where a group is joined. Boc = CC(C)(C)OC(=O)*; OBn = c1ccc(CO*)cc1

Tests used:
Assay in all cases: NCI anticancer screen, dose series, 48 h
COLO 205 colon = test system: COLO 205 colon
HCT-15 colon = test system: HCT-15 colon
HT29 colon = test system: HT29 colon
KM12 colon = test system: KM12 colon
LOX IMVI melanoma = test system: LOX IMVI melanoma
MCF7 breast = test system: MCF7 breast
NCI-H226 lung = test system: NCI-H226 lung
NCI-H23 lung = test system: NCI-H23 lung
OVCAR-3 ovarian = test system: OVCAR-3 ovarian
RXF 393 renal = test system: RXF 393 renal
SK-MEL-28 melanoma = test system: SK-MEL-28 melanoma
SK-OV-3 ovarian = test system: SK-OV-3 ovarian
SNB-19 CNS = test system: SNB-19 CNS
SNB-75 CNS = test system: SNB-75 CNS
SW-620 colon = test system: SW-620 colon
TK-10 renal = test system: TK-10 renal
UACC-257 melanoma = test system: UACC-257 melanoma
UACC-62 melanoma = test system: UACC-62 melanoma

Row | Structure (SMILES) | TGI (COLO 205 colon) [µM] | TGI (HCT-15 colon) [µM] | TGI (HT29 colon) [µM] | TGI (KM12 colon) [µM] | TGI (LOX IMVI melanoma) [µM] | TGI (MCF7 breast) [µM] | TGI (NCI-H226 lung) [µM] | TGI (NCI-H23 lung) [µM] | TGI (OVCAR-3 ovarian) [µM] | TGI (RXF 393 renal) [µM] | TGI (SK-MEL-28 melanoma) [µM] | TGI (SK-OV-3 ovarian) [µM] | TGI (SNB-19 CNS) [µM] | TGI (SNB-75 CNS) [µM] | TGI (SW-620 colon) [µM] | TGI (TK-10 renal) [µM] | TGI (UACC-257 melanoma) [µM] | TGI (UACC-62 melanoma) [µM] | GI50 (SNB-75 CNS)
1 | O=c1c2ccccc2n2n1Cc1ccccc1C2 | > 100 | > 100 | > 100 | > 100 | > 100 | > 100 | > 100 | > 100 | > 100 | > 100 | > 100 | > 100 | > 100 | > 100 | > 100 | > 100 | > 100 | > 100 | –
2 | N#Cc1nc(NC(=O)c2ccccc2)sc1N | > 10 | > 10 | > 10 | > 10 | > 10 | > 10 | > 10 | > 10 | > 10 | > 10 | > 10 | > 10 | > 10 | > 10 | > 10 | > 10 | > 10 | > 10 | –
3 | COc1cc(S(=O)(=O)Nc2ccc(-c3csc(/N=C\C=C\c4ccccc4)n3)cc2)ccc1Cl | > 100 | > 100 | > 100 | > 100 | > 100 | > 100 | 57.7 | > 100 | > 100 | 80.2 | > 100 | > 100 | > 100 | > 100 | > 100 | > 100 | > 100 | > 100 | –
4 | Cc1cn(CCCCOC(=O)NC(CCCNC(N)=O)C(=O)O)c(=O)[nH]c1=O (stereo not drawn) | > 100 | > 100 | > 100 | > 100 | > 100 | > 100 | > 100 | > 100 | > 100 | > 100 | > 100 | > 100 | > 100 | > 100 | > 100 | > 100 | > 100 | > 100 | –
5 | O=c1[nH]cnc2c1ncn2C1SC(CO)C(O)C1O (stereo not drawn) | > 100 | > 100 | > 100 | > 100 | > 100 | > 100 | > 100 | > 100 | > 100 | > 100 | > 100 | > 100 | > 100 | > 100 | > 100 | > 100 | > 100 | > 100 | –
6 | NN/C(=N\S(=O)(=O)c1cccc2nsnc12)Nc1ccc(Cl)cc1 | > 100 | > 100 | > 100 | > 100 | > 100 | > 100 | > 100 | > 100 | > 100 | > 100 | > 100 | > 100 | > 100 | > 100 | > 100 | > 100 | > 100 | > 100 | –
7 | Cc1cn(C2CC(N=[N+]=[N-])C(CO)O2)c(=O)n(CCCCO)c1=O (stereo not drawn) | > 100 | > 100 | > 100 | > 100 | > 100 | > 100 | > 100 | > 100 | > 100 | > 100 | > 100 | > 100 | > 100 | > 100 | > 100 | > 100 | > 100 | > 100 | –
8 | CC(C)C(NC(=O)CNC(=O)C1CCCN1C(=O)C(NC(=O)OC(C)(C)C)C(C)C)C(=O)NCC(=O)OCc1ccccc1 (stereo not drawn) (Boc-VPGVG-OBn; configuration not given here) | > 100 | > 100 | > 100 | > 100 | > 100 | > 100 | > 100 | > 100 | > 100 | > 100 | > 100 | > 100 | > 100 | > 100 | > 100 | > 100 | > 100 | > 100 | 35.3 µM and > 100 µM
9 | CC1=C2c3ccccc3N(S(=O)(=O)c3ccccc3)[C@H]2[C@H](C(=O)N2C3CC4CC[C@@]3(CS2(=O)=O)C4(C)C)CC1 (stereo partly drawn) | > 100 | > 100 | > 100 | > 100 | > 100 | 75.4 | > 100 | > 100 | > 100 | 14.7 | > 100 | > 100 | > 100 | 19.6 | > 100 | > 100 | > 100 | > 100 | –
10 | CCCCC1=CC1(C#N)[N+](=O)[O-] (stereo not drawn) | > 100 | > 100 | > 100 | > 100 | > 100 | > 100 | > 100 | > 100 | > 100 | > 100 | > 100 | > 100 | > 100 | > 100 | > 100 | > 100 | > 100 | > 100 | –
11 | Nc1ccc(-c2nc3ccccc3s2)cc1I | > 100 | > 100 | > 100 | > 100 | > 100 | > 100 | > 100 | > 100 | > 100 | > 100 | > 100 | > 100 | > 100 | 99.4 | > 100 | > 100 | > 100 | > 100 | –
12 | CC(=O)NC(CCCOC(C)=O)C(=O)NC(CCCOC(C)=O)C(=O)NC(CCCOC(C)=O)C(=O)NC(Cc1ccc([N+](=O)[O-])cc1)C(=O)NCC(=O)OCc1ccccc1 (stereo not drawn) | > 100 | > 100 | > 100 | > 100 | > 100 | > 100 | > 100 | > 100 | > 100 | > 100 | > 100 | > 100 | > 100 | > 100 | > 100 | > 100 | > 100 | > 100 | –
13 | O=[N+]([O-])c1cc(C(F)(F)F)ccc1S(=O)(=O)N[C@@H]1CCCC[C@H]1NS(=O)(=O)c1ccc(C(F)(F)F)cc1[N+](=O)[O-] | 6.77 | 10.1 | 22.7 | 12.1 | 3.24 | 5.2 | > 46.6 | 6.92 | 7.07 | > 28.1 | 33.3 | 71.7 | > 31.6 | 7.46 | 53.8 | > 100 | > 100 | 13.4 | –
14 | O=C1Cc2c(-c3ccccc3)cc(-c3ccc4ccccc4c3)nc2-c2ccccc2N1 | > 100 | > 100 | 15.9 | 28.3 | > 100 | > 100 | > 100 | > 100 | 27.6 | 13.1 | > 100 | > 100 | > 100 | 5.38 | > 100 | 29.4 | > 100 | > 100 | –
15 | CC(=O)OC(C#N)CC(C)(C)/[N+]([O-])=[N+](\[O-])C(C)(C)CC(C#N)OC(C)=O (stereo not drawn) | 32 | 25.5 | 65.8 | 28.9 | 28.8 | > 100 | 55.3 | 34 | 40 | 27.4 | 96.4 | > 100 | 67.6 | 63.8 | 30.2 | 31.2 | 37.8 | 32.2 | –
16 | CC(=O)O[C@H]1CC[C@@]2(C)C(=CC[C@H]3[C@@H]4C/C(=C\c5ccncc5)[C@H](OC(C)=O)[C@@]4(C)CC[C@@H]32)C1 | 18.2 | 15.6 | 20.3 | 16.3 | 13.3 | 30.3 | 34.6 | 19.3 | 23.4 | 9.86 | 20.6 | 44.1 | 22.2 | 23.8 | 17.2 | 47.9 | 33.3 | 26.5 | –
17 | CSc1n[nH]c2n[nH]c(C)c12 | > 100 | > 100 | > 100 | > 100 | > 100 | > 100 | > 100 | > 100 | > 100 | > 100 | > 100 | > 100 | > 100 | > 100 | > 100 | > 100 | > 100 | > 100 | –
18 | Cc1ccc(C2SC(N)=Nc3c2c(C)nn3C(=O)c2ccc(Cl)cc2)cc1 (stereo not drawn) | > 10 | > 10 | > 10 | > 10 | > 10 | > 10 | > 10 | > 10 | > 10 | > 10 | > 10 | > 10 | > 10 | > 10 | > 10 | > 10 | > 10 | > 10 | –
19 | COc1ccc(C(=O)C(CC2C(=O)CC(C)(C)C(C(=O)C(=O)Nc3c(C)cccc3C)C2=O)c2ccc(OC)cc2)cc1 (stereo not drawn) | > 100 | > 100 | > 100 | > 100 | > 100 | > 100 | > 100 | > 100 | > 100 | > 100 | > 100 | > 100 | > 100 | > 100 | > 100 | > 100 | > 100 | > 100 | –
